For data set [1], the target named is T1, HSP90α (Homo sapiens, UniProt P07900).
T1 construct: purchased
As to the kind of experiment: HSP90 binding, HSP90α Assay Kit (fluorescence polarization, labeled geldanamycin competition). The protocol: The bindings of the conjugates to HSP90 were studied with the HSP90α Assay Kit. The HSP90α Assay Kit is designed for identification of HSP90α inhibitors using fluorescence polarization. The assay is based on the competition of fluorescently labeled geldanamycin for binding to purified recombinant HSP90α. The key to the HSP90α Assay Kit is the fluorescently labeled geldanamycin. The fluorescently labeled geldanamycin is incubated with a sample containing HSP90α enzyme to produce a change in fluorescent polarization that can then be measured using a fluorescence reader.
In general terms: Polarisation of emitted light reports the rotation of a fluorescent probe.

Data set [2] concerns human total EbB2/Her2. Description: HER2 degradation assay (ELISA) in BT474 cells. The format is cell-based. The following applies: BT-474, 16 hrs, read-out: Her2 Degradation IC50 Abs IC50. As for the experimental part: BT474 (breast cancer) cells were plated at 12,000 cells per well and incubated for 20-24 hrs at 37° C. at 5% CO2. Post cell incubation, compounds were reconstituted in DMSO to a stock concentration of 5 mM. A compound plate was then prepared containing a 10 point dilution in DMSO. 2 uL of these dilutions were then added to the cells for a final working concentration of 5 uM to 0.0003 uM. Compounds and cells were incubated for 16 hrs. Media was then removed, cells washed, lysed, and analyzed for human total EbB2/Her2 levels by ELISA.

The target of data set [3] is T2, topoisomerase-I (Homo sapiens, UniProt P11387).
T2 sequence (P11387 1-765): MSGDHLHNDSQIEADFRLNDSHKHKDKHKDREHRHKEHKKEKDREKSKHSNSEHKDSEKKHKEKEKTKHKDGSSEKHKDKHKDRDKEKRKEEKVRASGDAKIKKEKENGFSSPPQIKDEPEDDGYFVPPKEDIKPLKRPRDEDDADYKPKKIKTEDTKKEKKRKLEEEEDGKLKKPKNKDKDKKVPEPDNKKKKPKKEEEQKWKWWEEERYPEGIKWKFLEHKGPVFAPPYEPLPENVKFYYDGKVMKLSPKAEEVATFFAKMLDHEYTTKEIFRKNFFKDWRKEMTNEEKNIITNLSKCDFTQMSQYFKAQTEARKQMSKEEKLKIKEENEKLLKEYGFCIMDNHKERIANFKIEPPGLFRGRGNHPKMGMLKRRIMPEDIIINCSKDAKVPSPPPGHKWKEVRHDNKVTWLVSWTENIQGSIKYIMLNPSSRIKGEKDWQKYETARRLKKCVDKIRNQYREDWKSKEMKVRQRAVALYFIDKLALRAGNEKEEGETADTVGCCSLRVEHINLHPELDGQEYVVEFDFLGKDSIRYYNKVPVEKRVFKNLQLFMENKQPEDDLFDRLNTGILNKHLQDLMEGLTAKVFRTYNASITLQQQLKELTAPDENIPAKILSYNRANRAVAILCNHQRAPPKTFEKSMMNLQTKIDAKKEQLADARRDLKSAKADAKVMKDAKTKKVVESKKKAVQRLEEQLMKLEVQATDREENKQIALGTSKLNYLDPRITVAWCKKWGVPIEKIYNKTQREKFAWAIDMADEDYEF
As to the kind of experiment: DNA damage / topoisomerase activity (FIG. 9). The following applies: FIG. 9, in words. The format is biochemical. An excerpt: In one further study, DNA damage caused by Conjugate 48 (a conjugate comprising a ganetespib derivative and SN-38) was compared with the DNA damage caused by SN-38, the payload of Conjugate 48. SN-38 and its pre-drug, irinotecan (an analog of camptothecin), are inhibitors of topoisomerase-I and potently cause DNA damage that results in nicks in the DNA. […] The conjugation of SN-38 to the HSP90 ligand results in the masking of the activity of SN-38 until it can be selectively delivered to tumors where linker cleavage occurs.

The format of data set [4] is in vivo, mice. To be noted: LS174t xenograft, in words. The protocol:
Accumulation and retention of Conjugate 38 was tested in this tumor xenograft model.

Data set [5] has as its system LS174t colon tumor xenograft. Description: LS174t colon tumor xenograft model, efficacy. To be noted: FIG. 3A, in words. Type of data set: in vivo, mice.
The nature of data set [6]: Glucose levels post dosing in mice. The following applies: FIG. 7, in words. Type of data set: in vivo. The text has this:
In an in vivo study in mice, glucose levels were monitored post PI3K inhibitor (Copanlisib) and Conjugate 38 dosing. […] Therefore, conjugating a PI3K enzyme inhibitor payload to a HSP90 targeting ligand reduced the normal tissue activity of glucose increase in mice.

The test system of data set [7] is NCI-H460 cells. Description: NCI-H460 tumor cell cytotoxicity assay (CellTiter-Glo). Type of data set: cell-based. To be noted: Homo sapiens, NCI-H460, 48 h. As for the experimental part: NCI-H460 cells (non-small cell lung cancer) were plated at 500 cells per well and incubated for 20-24 hrs at 37° C. at 5% CO2. Post cell incubation, compounds were reconstituted in DMSO to a stock concentration of 200 uM. A compound plate was then prepared containing a 10 point dilution in RPMI+10% FBS+0.25% DMSO. 5 uL of the dilution was then added for a final working concentration range of 10 uM to 0.0005 uM. Compounds and cells were then incubated for 48 hrs. Cells were then analyzed by CellTiter-Glo for ATP levels and percent inhibition calculated.
In general terms: ATP-based viability assays read luminescence as a measure of living cells.

For data set [8], the system named is PARP. As to the kind of experiment: PARP inhibiting activity (FIG. 8A). The format is biochemical. The following applies: in words. An excerpt:
The activity of the respective payload is blocked until the linker moiety gets cleaved in the tumor and releases active unblocked payload. Through the HSP90 platform, toxicity is mitigated by masking the payload's active site until it can be delivered to the tumor.
FIG. 8A compares the activity of Conjugate 45 and its payload (talazoparib). FIG. 8B compares the activity of Conjugate 46 and its payload (ulixertinib). FIG. 8C compares the activity of Conjugate 47 and its payload TAK-733. The data further support that attaching a payload to a HSP90 binding ligand blocks the target activity of the payload. The HSP90 bindings of the HSP90 ligands are not affected.

[9] abbreviates: n = 1, read-out: H460 in vitro cytotoxicity.
[10] abbreviates: n = 2, read-out: H460 in vitro cytotoxicity.

pIC50, pKd: −log10 of the molar value. Read-outs that look alike come from different tables or passages of the source.

Turning to `CCNC(=O)c1nnc(-c2cc(C(C)C)c(O)cc2O)n1-c1ccc(C(=O)NCc2cc(C)c(OC(=O)N3CCN(CCCOc4ccc5c(c4OC)N=C(NC(=O)c4cnc(N)nc4)N4CCN=C54)CC3)c(C)c2)cc1` [Compound 34], the pKd (usually the Kd on a negative log10 scale, so that one unit is a factor of ten) in data set [1] (read-out: HSP90 Binding Kd) was 8.86. Besides, the pIC50 in data set [2] is 6.85.

As to `CCNC(=O)c1nnc(-c2cc(C(C)C)c(O)cc2O)n1-c1ccc(CN2CCN(C(=O)c3ccc(OC(=O)N4CCN(CCCOc5ccc6c(c5OC)N=C(NC(=O)c5cnc(N)nc5)N5CCN=C65)CC4)cc3)CC2)cc1` [Compound 30], the pKd in data set [1] (read-out: HSP90 Binding Kd) is 9.17. Further, the pIC50 in data set [2] was 7.42. On to `CCc1c2c(nc3ccc(OC(=O)N4CCC(CCn5ccc6cc(-n7c(O)nnc7-c7cc(C(C)C)c(O)cc7O)ccc65)CC4)cc13)-c1cc3c(c(=O)n1C2)COC(=O)[C@]3(O)CC` [Conjugate 48], for which the DNA damage entry in data set [3] was “negligible levels of DNA damage up to 100 uM”. With `COc1c(OCCCN2CCOCC2)ccc2c1N=C(NC(=O)c1cnc(N)nc1)N1CCN=C21` [Copanlisib, reference compound], in data set [4], the tumor retention time result was “much shorter tumor retention time”. For the same molecule, in data set [5], the “efficacy (tumor growth inhibition) in LS174t xenograft” value is given as “lack of efficacy”. Also, the “glucose concentration after dosing” value in data set [6] is listed as “increase in glucose levels”.

As to `COc1c(OCCCN2CCN(C(=O)Oc3ccc(CC(=O)N4CCC(CCn5ccc6cc(-n7c(O)nnc7-c7cc(C(C)C)c(O)cc7O)ccc65)CC4)cc3)CC2)ccc2c1N=C(NC(=O)c1cnc(N)nc1)N1CCN=C21` [Compound 40], the pIC50 in data set [7] (setting [9]) is 6.61; in data set [7] (setting [10]), 7.25. For `CCc1c2c(nc3ccc(OC(=O)N4CCC(N5CCCCC5)CC4)cc13)-c1cc3c(c(=O)n1C2)COC(=O)[C@]3(O)CC` [irinotecan], in data set [3], the DNA damage result is on record as “moderate level of DNA damaging activity”. In the case of `CC(C)c1cc(-c2nnc(O)n2-c2ccc3c(ccn3C)c2)c(O)cc1O` [ganetespib, reference compound], the “efficacy (tumor growth inhibition) in LS174t xenograft” value in data set [5] is “lack of efficacy”. In data set [3], the DNA damage entry was “none”.

As to `CCNC(=O)c1nnc(-c2cc(C(C)C)c(O)cc2O)n1-c1ccc(C(=O)NCCc2ccc(OC(=O)N(C)CCCOc3ccc4c(c3OC)N=C(NC(=O)c3cnc(N)nc3)N3CCN=C43)cc2)cc1` [Compound 44], the pIC50 is 6.28 in data set [7] (setting [9]) and 6.49 in data set [7] (setting [10]).

For the molecule `CCNC(=O)c1nnc(-c2cc(C(C)C)c(O)cc2O)n1-c1ccc(CN2CCC(C(=O)N3CCC(C(=O)OC[C@@H](NC(=O)c4cc(-c5cc(NC(C)C)ncc5Cl)c[nH]4)c4cccc(Cl)c4)CC3)CC2)c(F)c1` [Compound 46], the pKd in data set [1] (read-out: HSP90 KD) is 9.00.

Take `CCNC(=O)c1nnc(-c2cc(C(C)C)c(O)cc2O)n1-c1ccc(CN2CCC(C(=O)N3CCN(c4ccc(OC(=O)N5CCN(CCCOc6ccc7c(c6OC)N=C(NC(=O)c6cnc(N)nc6)N6CCN=C76)CC5)cc4)CC3)CC2)cc1` [Compound 31]: the pKd in data set [1] (read-out: HSP90 Binding Kd) is 8.86. The pIC50 in data set [2] was 6.99.

As for `CCNC(=O)c1nnc(-c2cc(C(C)C)c(O)cc2O)n1-c1ccc(C(=O)NCCc2ccc(OC(=O)N(CCCOc3ccc4c(c3OC)N=C(NC(=O)c3cnc(N)nc3)N3CCN=C43)C(C)C)cc2)cc1` [Compound 42], the pIC50 was 6.87 in data set [7] (setting [9]) and 6.83 in data set [7] (setting [10]).

Take `CCNC(=O)c1nnc(-c2cc(C(C)C)c(O)cc2O)n1-c1ccc(CN2CCN(C(=O)Oc3ccc(OC(=O)N4CCN(CCCOc5ccc6c(c5OC)N=C(NC(=O)c5cnc(N)nc5)N5CCN=C65)CC4)cc3)CC2)cc1` [Compound 37]: the pIC50 in data set [2] was 6.92.

With `CCNC(=O)c1nnc(-c2cc(C(C)C)c(O)cc2O)n1-c1ccc(CN2CCN(C(=O)Cc3ccc(CC(=O)N(C)CCCOc4ccc5c(c4OC)N=C(NC(=O)c4cnc(N)nc4)N4CCN=C54)cc3)CC2)cc1` [Compound 43], the pIC50 in data set [7] (setting [9]) was 7.38; in data set [7] (setting [10]) it was 7.51. In the case of `CC(C)c1cc(-c2nnc(O)n2-c2ccc(CN3CCN(CCC(C)(C)SS[C@H](C)COC(=O)N(CCN(C)C)Cn4nc5c6c(cc(F)cc6c4=O)N[C@H](c4ccc(F)cc4)[C@H]5c4ncnn4C)CC3)cc2)c(O)cc1O` [Conjugate 45], the “PARP inhibiting activity compared with payload (talazoparib)” value in data set [8] is “lower than its payload”. On to `CCNC(=O)c1nnc(-c2cc(C(C)C)c(O)cc2O)n1-c1ccc(C(=O)N2CCN(Cc3ccc(OC(=O)N4CCN(CCCOc5ccc6c(c5OC)N=C(NC(=O)c5cnc(N)nc5)N5CCN=C65)CC4)c(C)c3)CC2)cc1` [Compound 33], for which the pKd in data set [1] (read-out: HSP90 Binding Kd) is 8.99. In addition, the pIC50 in data set [2] is 7.39. On the same counts, the results for `CCNC(=O)c1nnc(-c2cc(C(C)C)c(O)cc2O)n1-c1ccc(C(=O)N2CCN(Cc3ccc(OC(=O)N4CCN(CCCOc5ccc6c(c5OC)N=C(NC(=O)c5cnc(N)nc5)N5CCN=C65)CC4)cc3)CC2)cc1` [Compound 32] are 9.07 and 7.31.

For the molecule `COc1c(OCCCN2CCN(C(=O)Oc3ccc(CC(=O)N4CCN(Cc5ccc(-n6c(O)nnc6-c6cc(C(C)C)c(O)cc6O)cc5)CC4)cc3)CC2)ccc2c1N=C(NC(=O)c1cnc(N)nc1)N1CCN=C21` [Compound 39], the pKd in data set [1] (read-out: HSP90 Binding Kd) was 8.74. Also, the pIC50 in data set [2] is less than 4.70. On to `CCNC(=O)c1nnc(-c2cc(C(C)C)c(O)cc2O)n1-c1ccc(CN2CCN(C(=O)N3CCN(CCCOc4ccc5c(c4OC)N=C(NC(=O)c4cnc(N)nc4)N4CCN=C54)CC3)CC2)cc1` [Compound 36], for which the pIC50 in data set [2] is 7.14.

In the case of `CC(C)c1cc(-c2nnc(O)n2-c2ccc(CN3CCN(CCC(C)(C)SS[C@H](C)COC(=O)N(CCN(C)C)Cn4nc5c6c(cc(F)cc6c4=O)N[C@H](c4ccc(F)cc4)[C@H]5c4ncnn4C)CC3)cc2)c(O)cc1O` [Compound 45], in data set [1] (read-out: HSP90 KD), the pKd is 9.48. As for `CCNC(=O)c1nnc(-c2cc(C(C)C)c(O)cc2O)n1-c1ccc(N(C)C2CCN(C(=O)CCC(=O)OC[C@H](O)Cn3cnc4c(c(Nc5ccc(I)cc5F)c(F)c(=O)n4C)c3=O)CC2)cc1` [Compound 47], the pKd in data set [1] (read-out: HSP90 KD) was 8.92. `CCNC(=O)c1nnc(-c2cc(C(C)C)c(O)cc2O)n1-c1ccc(C(=O)N2CCN(c3ccc(OC(=O)N4CCN(CCCOc5ccc6c(c5OC)N=C(NC(=O)c5cnc(N)nc5)N5CCN=C65)CC4)cc3)CC2)cc1` [Compound 29]: the pKd in data set [1] (read-out: HSP90 Binding Kd) is 8.99. In addition, the pIC50 in data set [2] is 7.23. For `CCc1c2c(nc3ccc(O)cc13)-c1cc3c(c(=O)n1C2)COC(=O)[C@]3(O)CC` [SN-38], the DNA damage result in data set [3] is “DNA damage even at 1 uM”.

Values taken from patent US20210000966A1, “HSP90-TARGETING CONJUGATES AND FORMULATIONS THEREOF” (TARVEDA THERAPEUTICS, INC., priority 2017, published 2021).
